The subject of series [1] is bicistronic HCV replicon (replicon RNA, GenBank Accession No. AJ242654). In words: HCV Replicon Assay. Type of series: cell-based. The note with it: Hepatitis C virus, 72 h, read-out: Replicon IC50. For orientation: In antiviral work, replicon cells carry a viral genome segment that copies itself.

By IC50 is commonly meant the point on the concentration scale where inhibition reaches its midpoint. A word on the melting point: it is the temperature, or range, at which the solid turns liquid. Compound `N#Cc1c(-c2ccc(S(=O)(=O)NC(CF)CF)cn2)n(CC2CC2)c2cc(Cl)c(F)cc12` [compound 110, 6-[6-chloro-3-cyano-1-(cyclopropylmethyl)-5-fluoro-1H-indol-2-yl]-N-(1,3-difluoropropan-2-yl)pyridine-3-sulfonamide] yielded a melting point of 202 to 204 °C. Also, the IC50 in series [1] was under 500 nM.

`Cc1cc2c(cc1Cl)c(C(N)=O)c(-c1ncc(S(=O)(=O)N[C@@H](C)C(F)(F)F)cn1)n2C1CCC1` [compound 733, 5-chloro-1-cyclobutyl-6-methyl-2-(5-{[(2S)-1,1,1-trifluoropropan-2-yl]sulfamoyl}pyrimidin-2-yl)-1H-indole-3-carboxamide] showed a melting point of 171 to 173 °C. Also, the IC50 in series [1] was under 500 nM.

`N#Cc1c(-c2ncc(S(=O)(=O)NC(CF)CF)cn2)n(-c2ccccn2)c2cc(Cl)ccc12` [compound 450, 2-[6-chloro-3-cyano-1-(pyridin-2-yl)-1H-indol-2-yl]-N-(1,3-difluoropropan-2-yl)pyrimidine-5-sulfonamide] yielded a melting point of 234 to 235 °C. Further, the IC50 in series [1] was under 500 nM.

`N#Cc1c(-c2ccc(S(=O)(=O)NC(CF)CF)cn2)n(CC2CC2)c2cc(F)ccc12` [compound 57, 6-[3-cyano-1-(cyclopropylmethyl)-6-fluoro-1H-indol-2-yl]-N-(1,3-difluoropropan-2-yl)pyridine-3-sulfonamide] yielded a melting point of 188 to 190 °C. In addition, in series [1], the IC50 was under 500 nM.

`C[C@H](NS(=O)(=O)c1ccc(-c2c(C#N)c3cc(F)ccc3n2-c2ccc(C(F)(F)F)cn2)nc1)C(F)(F)F` [compound 724, 6-{3-cyano-5-fluoro-1-[5-(trifluoromethyl)pyridin-2-yl]-1H-indol-2-yl}-N-[(2S)-1,1,1-trifluoropropan-2-yl]pyridine-3-sulfonamide]: the melting point is 216 to 218 °C. Besides, in series [1], the IC50 fell in the range of 500 to 2000 nM.

As to `C[C@H](NS(=O)(=O)c1ccc(-c2c(C#N)c3cc(Cl)ccc3n2C2CCC2)nc1)C1CC1` [compound 119, 6-(5-chloro-3-cyano-1-cyclobutyl-1H-indol-2-yl)-N-[(1S)-1-cyclopropylethyl]pyridine-3-sulfonamide], the melting point was 154 to 155 °C. In addition, the IC50 in series [1] is under 500 nM.

For the compound `Cc1cc2c(cc1F)c(C(=O)O)c(-c1ccc(S(=O)(=O)NC3(C(F)(F)F)CC3)cn1)n2C1CCCCC1` [compound 835, 1-cyclohexyl-5-fluoro-6-methyl-2-(5-{[1-(trifluoromethyl)cyclopropyl]sulfamoyl}pyridin-2-yl)-1H-indole-3-carboxylic acid], the melting point was in the range of 205 to 213 °C. Further, in series [1], the IC50 was under 500 nM.

`C[C@@H](NS(=O)(=O)c1ccc(-c2c(C#N)c3ccc(C4CCC4)cc3n2C2CCCC2)nc1)C(F)(F)F` [compound 343, 6-(3-cyano-6-cyclobutyl-1-cyclopentyl-1H-indol-2-yl)-N-[(2R)-1,1,1-trifluoropropan-2-yl]pyridine-3-sulfonamide] returned a melting point of 176 to 178 °C. In addition, the IC50 in series [1] was 2000 to 5000 nM.

The compound `CC(C)Oc1ccc2c(C#N)c(-c3ccc(NS(=O)(=O)C4CC4)cn3)n(CC3CC3)c2c1` [compound 280, N-{6-[3-cyano-1-(cyclopropylmethyl)-6-(propan-2-yloxy)-1H-indol-2-yl]pyridin-3-yl}cyclopropanesulfonamide] showed a melting point of 150 to 155 °C. Besides, the IC50 in series [1] was in the range of 500 to 2000 nM.

`C[C@H](NS(=O)(=O)c1ccc(-c2c(C#N)c3ccc(C#N)cc3n2C2CCCC2)nc1)C(F)(F)F` [compound 470, 6-(3,6-dicyano-1-cyclopentyl-1H-indol-2-yl)-N-[(2S)-1,1,1-trifluoropropan-2-yl]pyridine-3-sulfonamide]: the melting point fell in the range of 203 to 205 °C. Also, the IC50 in series [1] was under 500 nM.

The compound `Cc1cc2c(cc1F)c(C(N)=O)c(-c1ccc(S(=O)(=O)N[C@H](C)C(F)(F)F)cn1)n2C1CCCC1` [compound 699, 1-cyclopentyl-5-fluoro-6-methyl-2-(5-{[(2R)-1,1,1-trifluoropropan-2-yl]sulfamoyl}pyridin-2-yl)-1H-indole-3-carboxamide] gave a melting point of 243 to 245 °C. In addition, the IC50 in series [1] is under 500 nM.

Compound `Cc1c(F)cc2c(C#N)c(-c3ccc(S(=O)(=O)N[C@@H](C)C(F)(F)F)cn3)n(C3CCC3)c2c1F` [compound 532, 6-(3-cyano-1-cyclobutyl-5,7-difluoro-6-methyl-1H-indol-2-yl)-N-[(2S)-1,1,1-trifluoropropan-2-yl]pyridine-3-sulfonamide] showed a melting point of 186 to 191 °C. Further, the IC50 in series [1] was under 500 nM.

`CC(C)n1c(-c2ccc(S(=O)(=O)NC(CF)CF)cn2)c(C#N)c2cc(F)ccc21` [compound 60, 6-[3-cyano-5-fluoro-1-(propan-2-yl)-1H-indol-2-yl]-N-(1,3-difluoropropan-2-yl)pyridine-3-sulfonamide] came in with a melting point of 168 to 170 °C. In addition, the IC50 in series [1] was under 500 nM.

Compound `CCc1cc2c(cc1F)c(C#N)c(-c1ccc(S(=O)(=O)NC(CF)CF)cn1)n2C1CCCC1` [compound 639, 6-(3-cyano-1-cyclopentyl-6-ethyl-5-fluoro-1H-indol-2-yl)-N-(1,3-difluoropropan-2-yl)pyridine-3-sulfonamide] registered a melting point of 179.5 to 180 °C. The IC50 in series [1] was under 500 nM.

With `C[C@H](NS(=O)(=O)c1cnc(-c2c(C#N)c3ccc(F)cc3n2C2CCCC2)nc1)C(F)(F)F` [compound 495, 2-(3-cyano-1-cyclopentyl-6-fluoro-1H-indol-2-yl)-N-[(2S)-1,1,1-trifluoropropan-2-yl]pyrimidine-5-sulfonamide], the melting point fell in the range of 217 to 219 °C. Besides, in series [1], the IC50 lay in the range of 2000 to 5000 nM.

Regarding `CC(C)(C)NS(=O)(=O)c1ccc(-c2c(C(N)=O)c3cc(F)c(OC(F)F)cc3n2C2CCC2)nc1` [compound 723, 2-[5-(tert-butylsulfamoyl)pyridin-2-yl]-1-cyclobutyl-6-(difluoromethoxy)-5-fluoro-1H-indole-3-carboxamide], the melting point is 158 to 160 °C. Also, in series [1], the IC50 was under 500 nM.

The compound `CC(C)(NS(=O)(=O)c1ccc(-c2c(C#N)c3ccc(CC(F)F)cc3n2C2CCCC2)nc1)C(F)(F)F` [compound 596, 6-[3-cyano-1-cyclopentyl-6-(2,2-difluoroethyl)-1H-indol-2-yl]-N-(1,1,1-trifluoro-2-methylpropan-2-yl)pyridine-3-sulfonamide] yielded a melting point of 194 to 199 °C. Besides, in series [1], the 50% inhibitory concentration (IC50) is under 500 nM.

Take `CCc1cc2c(cc1F)c(C#N)c(-c1ccc(S(=O)(=O)N[C@@H](C)C(F)(F)F)cn1)n2-c1cccnc1` [compound 954, 6-[3-cyano-6-ethyl-5-fluoro-1-(pyridin-3-yl)-1H-indol-2-yl]-N-[(2S)-1,1,1-trifluoropropan-2-yl]pyridine-3-sulfonamide]: the melting point fell in the range of 205 to 212 °C. The IC50 in series [1] is under 500 nM.

The compound `Cc1ccc2c(C#N)c(-c3ccc(S(=O)(=O)N[C@H](C)C(F)(F)F)cn3)n(C3CCCC3)c2c1` [compound 214, 6-(3-cyano-1-cyclopentyl-6-methyl-1H-indol-2-yl)-N-[(2R)-1,1,1-trifluoropropan-2-yl]pyridine-3-sulfonamide] yielded a melting point of 176 to 182 °C. Moreover, in series [1], the IC50 was under 500 nM.

The values are drawn from patent publication US8735414B2 (priority 2009, dated 2014).
